20 molecules from ChEMBL document CHEMBL5291721, “A preclinical secondary pharmacology resource illuminates target-adverse drug reaction associations of marketed drugs” (Nat Commun, 2023) can be followed below.

One may read the AC50 as the concentration at which the activity in the assay is half-maximal.

Experiment [1] addresses T1, Adenosine receptor A3 (Homo sapiens, UniProt P0DMS8).
T1 sequence (P0DMS8 whole entry): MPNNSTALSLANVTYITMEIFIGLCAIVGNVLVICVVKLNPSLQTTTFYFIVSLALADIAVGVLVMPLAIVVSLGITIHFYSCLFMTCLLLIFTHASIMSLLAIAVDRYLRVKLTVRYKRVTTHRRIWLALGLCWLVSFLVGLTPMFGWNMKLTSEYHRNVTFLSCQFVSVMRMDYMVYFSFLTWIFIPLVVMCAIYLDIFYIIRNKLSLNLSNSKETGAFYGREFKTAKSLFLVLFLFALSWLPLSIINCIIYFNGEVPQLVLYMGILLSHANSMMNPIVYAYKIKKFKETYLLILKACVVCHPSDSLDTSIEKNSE

Experiment [2] has as its target T2, 5-hydroxytryptamine receptor 1A (Homo sapiens, UniProt P08908).
T2 sequence (P08908 whole entry): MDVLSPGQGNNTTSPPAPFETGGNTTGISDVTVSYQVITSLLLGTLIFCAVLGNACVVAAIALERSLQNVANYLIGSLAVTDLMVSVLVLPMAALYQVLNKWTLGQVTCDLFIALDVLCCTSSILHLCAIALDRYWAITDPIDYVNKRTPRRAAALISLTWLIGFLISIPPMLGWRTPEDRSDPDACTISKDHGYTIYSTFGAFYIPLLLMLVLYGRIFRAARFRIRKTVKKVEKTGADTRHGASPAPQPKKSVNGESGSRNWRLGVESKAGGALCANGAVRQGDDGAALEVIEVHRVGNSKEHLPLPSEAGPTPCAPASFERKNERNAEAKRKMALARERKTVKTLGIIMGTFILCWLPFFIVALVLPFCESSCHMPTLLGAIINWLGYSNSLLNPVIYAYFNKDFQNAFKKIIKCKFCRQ

Experiment [3] addresses Sodium-dependent dopamine transporter (Homo sapiens, UniProt Q01959).
In experiment [4] the target is Sodium-dependent serotonin transporter (Homo sapiens, UniProt P31645).
Sequence of Sodium-dependent serotonin transporter (P31645 whole entry): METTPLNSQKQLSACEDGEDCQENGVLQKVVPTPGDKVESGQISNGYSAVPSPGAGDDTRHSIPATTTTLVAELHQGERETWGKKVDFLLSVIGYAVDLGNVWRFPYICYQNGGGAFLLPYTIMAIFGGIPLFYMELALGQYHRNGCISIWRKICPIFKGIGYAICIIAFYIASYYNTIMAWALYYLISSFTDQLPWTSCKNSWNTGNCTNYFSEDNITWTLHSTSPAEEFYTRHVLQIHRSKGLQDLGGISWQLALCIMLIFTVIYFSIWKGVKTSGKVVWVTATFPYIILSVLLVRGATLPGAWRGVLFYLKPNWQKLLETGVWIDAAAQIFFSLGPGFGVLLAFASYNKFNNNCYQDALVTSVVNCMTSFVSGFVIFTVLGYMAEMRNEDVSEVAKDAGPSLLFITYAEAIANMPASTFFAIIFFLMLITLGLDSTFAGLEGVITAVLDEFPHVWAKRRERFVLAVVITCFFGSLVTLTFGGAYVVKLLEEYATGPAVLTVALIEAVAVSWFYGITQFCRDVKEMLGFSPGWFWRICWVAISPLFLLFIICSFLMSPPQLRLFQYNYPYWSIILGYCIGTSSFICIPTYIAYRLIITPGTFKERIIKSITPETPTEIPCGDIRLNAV
In experiment [5] the target is T3, Amine oxidase [flavin-containing] A (Homo sapiens, UniProt P21397).
T3 sequence (P21397 whole entry): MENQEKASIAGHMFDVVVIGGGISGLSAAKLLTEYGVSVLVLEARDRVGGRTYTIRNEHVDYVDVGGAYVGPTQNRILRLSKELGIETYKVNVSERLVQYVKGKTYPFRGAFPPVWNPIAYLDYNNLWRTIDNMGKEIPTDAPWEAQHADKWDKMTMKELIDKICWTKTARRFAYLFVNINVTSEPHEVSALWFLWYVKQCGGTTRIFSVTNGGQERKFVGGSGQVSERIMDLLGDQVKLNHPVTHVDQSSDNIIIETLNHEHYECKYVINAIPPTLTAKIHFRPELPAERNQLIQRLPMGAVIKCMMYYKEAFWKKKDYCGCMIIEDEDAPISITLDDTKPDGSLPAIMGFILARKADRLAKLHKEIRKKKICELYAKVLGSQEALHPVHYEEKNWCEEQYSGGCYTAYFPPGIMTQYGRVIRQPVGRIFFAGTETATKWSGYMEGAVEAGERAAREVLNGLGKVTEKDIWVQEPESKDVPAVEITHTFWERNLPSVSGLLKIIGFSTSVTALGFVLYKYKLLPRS
It is filed as functional.

For experiment [6], the target named is D(1A) dopamine receptor (Homo sapiens, UniProt P21728).
Sequence of D(1A) dopamine receptor (P21728 whole entry): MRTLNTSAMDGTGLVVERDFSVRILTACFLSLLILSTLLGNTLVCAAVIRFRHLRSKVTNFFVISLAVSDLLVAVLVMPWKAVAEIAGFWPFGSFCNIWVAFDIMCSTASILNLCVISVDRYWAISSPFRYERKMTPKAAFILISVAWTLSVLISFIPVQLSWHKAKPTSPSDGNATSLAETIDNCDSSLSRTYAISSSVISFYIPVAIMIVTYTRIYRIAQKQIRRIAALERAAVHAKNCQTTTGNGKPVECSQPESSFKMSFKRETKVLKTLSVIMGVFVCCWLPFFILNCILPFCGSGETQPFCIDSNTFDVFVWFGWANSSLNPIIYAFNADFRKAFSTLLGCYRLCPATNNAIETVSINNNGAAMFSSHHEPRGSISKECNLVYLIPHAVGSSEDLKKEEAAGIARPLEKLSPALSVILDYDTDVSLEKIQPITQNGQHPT
The target in experiment [7] is Mu-type opioid receptor (Homo sapiens, UniProt P35372).
Sequence of Mu-type opioid receptor (P35372 whole entry): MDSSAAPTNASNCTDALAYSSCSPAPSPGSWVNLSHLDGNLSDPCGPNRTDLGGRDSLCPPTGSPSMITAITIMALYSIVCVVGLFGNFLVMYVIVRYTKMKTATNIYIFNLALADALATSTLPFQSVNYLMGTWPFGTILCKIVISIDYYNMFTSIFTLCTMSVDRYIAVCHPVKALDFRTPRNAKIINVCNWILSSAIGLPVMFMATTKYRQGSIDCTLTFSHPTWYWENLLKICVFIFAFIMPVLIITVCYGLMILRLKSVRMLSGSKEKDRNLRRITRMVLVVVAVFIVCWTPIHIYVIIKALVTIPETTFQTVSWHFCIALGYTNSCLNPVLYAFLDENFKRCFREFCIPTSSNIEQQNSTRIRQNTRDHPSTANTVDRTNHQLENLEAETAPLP
In experiment [8] the target is T4, Alpha-1A adrenergic receptor (Homo sapiens, UniProt P35348).
T4 sequence (P35348 whole entry): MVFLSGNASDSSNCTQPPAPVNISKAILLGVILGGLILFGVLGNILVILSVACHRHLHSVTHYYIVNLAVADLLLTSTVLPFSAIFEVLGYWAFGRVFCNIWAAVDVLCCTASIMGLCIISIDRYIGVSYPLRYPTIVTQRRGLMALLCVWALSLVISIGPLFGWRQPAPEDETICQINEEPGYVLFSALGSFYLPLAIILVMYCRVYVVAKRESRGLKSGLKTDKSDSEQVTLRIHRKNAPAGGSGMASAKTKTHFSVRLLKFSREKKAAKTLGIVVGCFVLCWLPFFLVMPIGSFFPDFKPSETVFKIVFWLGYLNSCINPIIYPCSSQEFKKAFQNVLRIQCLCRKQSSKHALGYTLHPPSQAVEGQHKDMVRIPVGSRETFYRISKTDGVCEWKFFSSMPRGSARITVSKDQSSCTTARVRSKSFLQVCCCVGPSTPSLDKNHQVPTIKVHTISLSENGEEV
It counts as functional, cell-based.

The target in experiment [9] is 5-hydroxytryptamine receptor 2A (Homo sapiens, UniProt P28223). It is filed as functional, cell-based.
Sequence of 5-hydroxytryptamine receptor 2A (P28223 whole entry): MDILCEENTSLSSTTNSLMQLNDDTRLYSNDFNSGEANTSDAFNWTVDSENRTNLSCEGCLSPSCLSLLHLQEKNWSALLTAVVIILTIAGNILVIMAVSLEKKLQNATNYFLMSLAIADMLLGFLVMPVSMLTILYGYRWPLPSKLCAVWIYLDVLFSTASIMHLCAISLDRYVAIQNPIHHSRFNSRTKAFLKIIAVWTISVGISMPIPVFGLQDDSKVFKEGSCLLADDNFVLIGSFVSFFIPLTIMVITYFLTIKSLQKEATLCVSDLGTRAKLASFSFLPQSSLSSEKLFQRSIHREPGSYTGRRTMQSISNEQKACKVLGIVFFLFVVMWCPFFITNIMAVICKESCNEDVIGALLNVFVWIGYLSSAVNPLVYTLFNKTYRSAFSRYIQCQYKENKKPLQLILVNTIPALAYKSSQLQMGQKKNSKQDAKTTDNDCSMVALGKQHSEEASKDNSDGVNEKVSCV
Experiment [10] deals with Histamine H3 receptor (Homo sapiens, UniProt Q9Y5N1).
Sequence of Histamine H3 receptor (Q9Y5N1 whole entry): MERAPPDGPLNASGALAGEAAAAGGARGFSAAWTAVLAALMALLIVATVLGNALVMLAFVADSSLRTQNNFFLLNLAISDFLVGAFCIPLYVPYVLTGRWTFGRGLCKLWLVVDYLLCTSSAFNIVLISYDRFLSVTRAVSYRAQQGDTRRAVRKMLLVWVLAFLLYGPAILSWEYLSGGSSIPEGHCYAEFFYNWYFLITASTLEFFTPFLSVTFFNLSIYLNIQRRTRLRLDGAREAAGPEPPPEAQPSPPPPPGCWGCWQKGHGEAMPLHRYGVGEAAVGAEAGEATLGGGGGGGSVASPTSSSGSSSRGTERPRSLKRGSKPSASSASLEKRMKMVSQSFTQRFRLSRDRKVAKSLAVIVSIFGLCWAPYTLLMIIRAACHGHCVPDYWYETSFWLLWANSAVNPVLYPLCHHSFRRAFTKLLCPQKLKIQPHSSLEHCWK

SMILES strings stand for the structures.
Further: assay procedure not described here.

Sequence of Sodium-dependent dopamine transporter (Q01959 whole entry): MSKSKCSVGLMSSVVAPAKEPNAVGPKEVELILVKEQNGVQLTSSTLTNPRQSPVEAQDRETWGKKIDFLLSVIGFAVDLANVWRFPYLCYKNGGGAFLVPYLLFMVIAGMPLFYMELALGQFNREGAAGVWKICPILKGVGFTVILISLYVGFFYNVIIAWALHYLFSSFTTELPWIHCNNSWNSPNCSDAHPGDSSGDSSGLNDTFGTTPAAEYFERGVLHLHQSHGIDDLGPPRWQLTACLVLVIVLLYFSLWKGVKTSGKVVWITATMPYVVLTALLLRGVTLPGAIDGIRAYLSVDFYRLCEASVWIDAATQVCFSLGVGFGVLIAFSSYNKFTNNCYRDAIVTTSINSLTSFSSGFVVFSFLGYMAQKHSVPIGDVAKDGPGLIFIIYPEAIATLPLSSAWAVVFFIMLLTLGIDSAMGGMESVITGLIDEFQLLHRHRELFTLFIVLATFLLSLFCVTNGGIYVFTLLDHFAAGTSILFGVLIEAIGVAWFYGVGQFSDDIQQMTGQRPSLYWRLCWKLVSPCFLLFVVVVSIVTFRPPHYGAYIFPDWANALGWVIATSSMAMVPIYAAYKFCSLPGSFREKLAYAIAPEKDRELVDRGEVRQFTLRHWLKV

As for `OC[C@H]1NC[C@H](O)[C@@H](O)[C@H]1O`, the AC50 in [1], in [2], in experiment [3], in experiment [4], in experiment [5] and in [6] was more than 30 µM each time. For the same molecule, the AC50 in experiment [7] is more than 30 µM.
For the molecule `O=C(O)[C@@H](S)[C@@H](S)C(=O)O`, the AC50 in experiment [2], in experiment [3], in experiment [4], in [5], in experiment [6] and in experiment [7] was more than 30 µM throughout.
As to `CC#CC(=O)N1CCC[C@H]1c1nc(-c2ccc(C(=O)Nc3ccccn3)cc2)c2c(N)nccn12` [ACALABRUTINIB], the AC50 in experiment [2], in [3], in experiment [4], in experiment [5], in experiment [6] and in experiment [7] was more than 30 µM throughout.
Take `C=CCOc1ccc(CC(=O)O)cc1Cl` [ALCLOFENAC]: the AC50 in [1], in [2], in experiment [3], in [4], in [5] and in experiment [6] was more than 30 µM each time. Besides, the AC50 in experiment [7] is more than 30 µM.
With `NC(=O)C1(N2CCCCC2)CCN(CCCN2c3ccccc3CCc3ccccc32)CC1` [CARPIPRAMINE], the half-maximal activity concentration (AC50) was more than 30 µM in experiment [1]; 2.83 µM in experiment [2]; 2.94 µM in experiment [3]; 2.73 µM in [4]; more than 30 µM in [5]; 0.0928 µM in experiment [6]. Besides, in experiment [7], the AC50 came out at 0.342 µM.
Turning to `O=C(Cc1cccs1)N[C@@H]1C(=O)N2C(C(=O)[O-])=C(C[n+]3ccccc3)CS[C@H]12` [CEPHALORIDINE], the AC50 in experiment [2], in experiment [3], in [8], in experiment [4], in experiment [9] and in experiment [5] was more than 30 µM in each case. Moreover, the AC50 in experiment [6] and in [7] was more than 30 µM throughout.
Consider `CN1CCN(C(c2ccccc2)c2ccc(Cl)cc2)CC1` (stereo not drawn) [CHLORCYCLIZINE], for which the half-maximal activity concentration (AC50) in experiment [1] is more than 30 µM; in experiment [2], 13.9 µM; in experiment [3], 0.225 µM; in experiment [4] it was 15.4 µM; in experiment [5], more than 30 µM; in experiment [6], 6.89 µM. Also, in [7], the AC50 is more than 30 µM.
In the case of `CCCCCCCCCCCCCCCC(=O)OC[C@H](COP(=O)([O-])OCC[N+](C)(C)C)OC(=O)CCCCCCCCCCCCCCC` [COLFOSCERIL PALMITATE], the AC50 in [2], in experiment [3], in [4], in experiment [5], in experiment [6] and in experiment [7] was more than 30 µM throughout.
In the case of `CC(C)Nc1cccnc1N1CCN(C(=O)c2cc3cc(NS(C)(=O)=O)ccc3[nH]2)CC1` [DELAVIRDINE], the AC50 in experiment [1] is 21.4 µM; in [2] it was more than 30 µM; in experiment [3], more than 30 µM; in experiment [4], more than 30 µM; in experiment [5], 24 µM; in [6], more than 30 µM. In experiment [7], this molecule came in with an AC50 of 13.9 µM.
As to `C[C@@H](CN1CC(=O)NC(=O)C1)N1CC(=O)NC(=O)C1` [DEXRAZOXANE], the concentration at half-maximal activity (AC50) in experiment [1], in experiment [2], in [3], in experiment [4], in [5] and in experiment [6] was more than 30 µM each time. This molecule also came in with an AC50 in [7] of more than 30 µM.
`C[C@H](Nc1ncnc2[nH]cnc12)c1cc2cccc(Cl)c2c(=O)n1-c1ccccc1` [DUVELISIB]: the AC50 is more than 30 µM in experiment [2]; more than 30 µM in experiment [3]; more than 30 µM in experiment [8]; more than 30 µM in experiment [4]; 18 µM in experiment [9]; more than 30 µM in experiment [10]. In addition, the AC50 in [5], in experiment [6] and in [7] was more than 30 µM each time.
Regarding `C[C@]12CC[C@@H]3c4ccc(OC(=O)N(CCCl)CCCl)cc4CC[C@H]3[C@@H]1CC[C@@H]2OP(=O)(O)O` [ESTRAMUSTINE PHOSPHATE], the AC50 in experiment [1] was 7.84 µM; in experiment [2] it was more than 30 µM; in experiment [3] it was more than 30 µM; in experiment [4], more than 30 µM; in [5] it was more than 30 µM; in experiment [6], 25.4 µM. Further, the AC50 in [7] is more than 30 µM.
For the molecule `O=c1[nH]c2ccccc2n1CCN1CCN(c2cccc(C(F)(F)F)c2)CC1` [FLIBANSERIN], the AC50 is 15.6 µM in experiment [1]; 0.003 µM in experiment [2]; more than 30 µM in experiment [3]; 17.7 µM in experiment [4]; more than 30 µM in [5]; 2.43 µM in experiment [6]. The same molecule displayed a concentration at half-maximal activity (AC50) in experiment [7] of 1.3 µM.
In the case of `CNC1(c2ccccc2Cl)CCCCC1=O` (stereo not drawn) [KETAMINE], the AC50 in experiment [1] is more than 30 µM; in [2], more than 30 µM; in [3] it was more than 30 µM; in [5] it was more than 30 µM; in experiment [6], more than 30 µM; in experiment [7], 7.63 µM.
For `O=NN(CCCl)C(=O)NC1CCCCC1` [LOMUSTINE], the AC50 in experiment [1], in experiment [2], in experiment [3], in experiment [5], in experiment [6] and in experiment [7] was more than 30 µM in each case.
For the molecule `O=C1[C@@H]2[C@H]3CC[C@H](C3)[C@@H]2C(=O)N1C[C@@H]1CCCC[C@H]1CN1CCN(c2nsc3ccccc23)CC1` [LURASIDONE], the AC50 in experiment [1] was 6.36 µM; in experiment [4] it was more than 30 µM; in experiment [10], more than 30 µM; in experiment [5], more than 30 µM; in experiment [7], more than 10 µM.
As to `CO[C@@]1(NC(=O)C(C(=O)O)c2ccc(O)cc2)C(=O)N2C(C(=O)O)=C(CSc3nnnn3C)CO[C@@H]21` (stereo partly drawn) [MOXALACTAM], the AC50 in experiment [2], in experiment [3], in experiment [4], in experiment [5], in experiment [6] and in experiment [7] was more than 30 µM in each case.
On to `CCCCCCCC/C=C\CCCCCCCC(=O)O` [OLEIC ACID], for which the half-maximal activity concentration (AC50) in [2], in experiment [3], in [4], in [5], in experiment [6] and in experiment [7] was more than 30 µM throughout.
As to `C#CCN(C)Cc1ccccc1` [PARGYLINE], the AC50 in experiment [2], in [3], in experiment [8], in [4], in [9] and in experiment [6] was more than 30 µM each time. The AC50 in experiment [7] is more than 30 µM.
`COc1cccc2c1C(=O)c1c(O)c3c(c(O)c1C2=O)C[C@@](O)(C(=O)CO)C[C@@H]3O[C@H]1C[C@H](N)[C@H](O[C@@H]2CCCCO2)[C@H](C)O1` [PIRARUBICIN]: the AC50 in [2], in [3], in experiment [4], in [5], in experiment [6] and in [7] was more than 30 µM in each case.
